We go through seven compounds from ChEMBL document CHEMBL5465560, “Selectivity Literature for EUbOPEN Chemogenomic Library” (2024).

SMILES strings stand for the structures.

Assay [1] addresses T1, Ephrin type-B receptor 1 (Homo sapiens) (UniProt P54762).
T1 sequence (whole entry): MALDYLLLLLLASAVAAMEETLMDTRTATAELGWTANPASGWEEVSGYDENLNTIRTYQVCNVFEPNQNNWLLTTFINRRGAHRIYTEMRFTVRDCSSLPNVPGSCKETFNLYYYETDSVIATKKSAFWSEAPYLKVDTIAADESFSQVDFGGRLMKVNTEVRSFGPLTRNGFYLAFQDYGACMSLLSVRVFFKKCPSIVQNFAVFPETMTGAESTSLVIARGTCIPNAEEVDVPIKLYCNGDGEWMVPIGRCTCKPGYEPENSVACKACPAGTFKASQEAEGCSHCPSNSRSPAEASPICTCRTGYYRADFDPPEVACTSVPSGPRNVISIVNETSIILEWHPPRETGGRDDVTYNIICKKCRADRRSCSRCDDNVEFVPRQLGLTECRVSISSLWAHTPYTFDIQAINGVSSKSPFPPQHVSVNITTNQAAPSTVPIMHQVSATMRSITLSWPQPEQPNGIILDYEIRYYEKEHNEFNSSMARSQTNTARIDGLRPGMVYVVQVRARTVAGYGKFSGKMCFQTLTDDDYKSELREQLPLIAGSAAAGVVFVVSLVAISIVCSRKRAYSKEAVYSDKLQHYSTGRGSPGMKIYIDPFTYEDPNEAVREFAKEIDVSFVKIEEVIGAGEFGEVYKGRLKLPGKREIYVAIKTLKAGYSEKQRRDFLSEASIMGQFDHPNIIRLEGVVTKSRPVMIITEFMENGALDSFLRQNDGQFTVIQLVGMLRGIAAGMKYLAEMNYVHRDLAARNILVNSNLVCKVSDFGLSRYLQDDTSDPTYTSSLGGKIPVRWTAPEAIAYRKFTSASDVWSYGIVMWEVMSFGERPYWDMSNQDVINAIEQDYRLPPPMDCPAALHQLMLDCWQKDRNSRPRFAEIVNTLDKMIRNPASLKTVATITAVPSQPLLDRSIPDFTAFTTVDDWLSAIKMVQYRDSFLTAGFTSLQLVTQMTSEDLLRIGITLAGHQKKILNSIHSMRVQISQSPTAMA
Nature of the assay: Selectivity interaction (Kinase panel (Z-LYTE Assay)) EUB0001632a EPHB1. The settings on record: at 10 µM.

The target in assay [2] is Serine/threonine-protein kinase 33 (Homo sapiens) (UniProt Q9BYT3). Nature of the assay: Selectivity interaction (KinomeScan (DiscoverX)) EUB0000655a STK33. The note with it: at 10 µM.
Sequence of Serine/threonine-protein kinase 33 (Homo sapiens) (Q9BYT3 whole entry, looked up): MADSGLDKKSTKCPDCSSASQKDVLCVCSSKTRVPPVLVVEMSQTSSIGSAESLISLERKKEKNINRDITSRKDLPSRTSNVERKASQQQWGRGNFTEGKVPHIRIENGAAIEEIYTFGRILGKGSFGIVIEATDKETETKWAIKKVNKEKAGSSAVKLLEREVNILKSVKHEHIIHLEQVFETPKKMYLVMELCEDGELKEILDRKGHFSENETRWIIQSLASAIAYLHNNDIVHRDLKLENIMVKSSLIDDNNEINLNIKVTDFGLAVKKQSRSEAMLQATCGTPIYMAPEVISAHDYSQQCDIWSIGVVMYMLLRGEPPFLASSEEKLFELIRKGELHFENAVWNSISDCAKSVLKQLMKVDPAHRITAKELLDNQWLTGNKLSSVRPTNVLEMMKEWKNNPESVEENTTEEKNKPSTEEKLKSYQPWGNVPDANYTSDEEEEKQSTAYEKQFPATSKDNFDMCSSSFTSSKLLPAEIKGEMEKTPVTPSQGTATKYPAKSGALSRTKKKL
Assay [3] concerns the target T2, Mitogen-activated protein kinase 12 (Homo sapiens) (UniProt P53778).
T2 sequence (whole entry): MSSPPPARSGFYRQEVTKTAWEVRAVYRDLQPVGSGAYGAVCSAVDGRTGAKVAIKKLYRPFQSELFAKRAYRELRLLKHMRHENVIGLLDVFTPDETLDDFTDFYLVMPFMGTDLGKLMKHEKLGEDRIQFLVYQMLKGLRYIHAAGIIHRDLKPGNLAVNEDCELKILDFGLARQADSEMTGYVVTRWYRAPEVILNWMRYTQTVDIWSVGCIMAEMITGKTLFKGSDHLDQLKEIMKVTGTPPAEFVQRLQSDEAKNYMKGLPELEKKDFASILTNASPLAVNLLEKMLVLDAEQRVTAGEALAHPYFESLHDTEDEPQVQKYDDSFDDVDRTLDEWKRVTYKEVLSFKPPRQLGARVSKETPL
Nature of the assay: Selectivity interaction (Kinase panel (literature)) EUB0001199aCl MAPK12. The note with it: at 1 µM.

The target in assay [4] is T3, Protein kinase C iota type (Homo sapiens) (UniProt P41743).
T3 sequence (whole entry): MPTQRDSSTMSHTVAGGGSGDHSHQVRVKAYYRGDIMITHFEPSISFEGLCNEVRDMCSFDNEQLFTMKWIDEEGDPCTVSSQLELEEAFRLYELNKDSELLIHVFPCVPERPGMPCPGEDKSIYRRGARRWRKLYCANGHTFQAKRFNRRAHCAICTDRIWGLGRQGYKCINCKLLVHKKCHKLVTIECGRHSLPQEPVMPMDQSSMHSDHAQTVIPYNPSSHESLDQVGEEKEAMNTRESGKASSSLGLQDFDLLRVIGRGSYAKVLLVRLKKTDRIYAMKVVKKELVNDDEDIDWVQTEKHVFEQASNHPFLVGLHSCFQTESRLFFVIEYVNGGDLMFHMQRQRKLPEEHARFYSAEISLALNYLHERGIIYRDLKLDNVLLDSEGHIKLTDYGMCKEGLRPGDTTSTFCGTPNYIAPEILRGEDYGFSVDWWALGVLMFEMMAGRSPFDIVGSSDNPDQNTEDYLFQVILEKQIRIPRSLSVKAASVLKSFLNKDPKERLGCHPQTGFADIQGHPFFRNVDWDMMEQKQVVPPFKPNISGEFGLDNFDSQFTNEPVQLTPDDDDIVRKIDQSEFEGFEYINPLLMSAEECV
Nature of the assay: Selectivity interaction (ActivX KiNativ screen (kinase selectivity in THP-1 cell lysates)) EUB0000639a PRKCI. In kind it is subcellular. The note with it: lysate, at 1 µM.

The target of assay [5] is Receptor-type tyrosine-protein kinase FLT3 (Homo sapiens) (UniProt P36888). Description: Selectivity interaction (Kinase panel (Invitrogen)) EUB0000639a FLT3. The note with it: at 200 nM.
Sequence of Receptor-type tyrosine-protein kinase FLT3 (Homo sapiens) (P36888 whole entry): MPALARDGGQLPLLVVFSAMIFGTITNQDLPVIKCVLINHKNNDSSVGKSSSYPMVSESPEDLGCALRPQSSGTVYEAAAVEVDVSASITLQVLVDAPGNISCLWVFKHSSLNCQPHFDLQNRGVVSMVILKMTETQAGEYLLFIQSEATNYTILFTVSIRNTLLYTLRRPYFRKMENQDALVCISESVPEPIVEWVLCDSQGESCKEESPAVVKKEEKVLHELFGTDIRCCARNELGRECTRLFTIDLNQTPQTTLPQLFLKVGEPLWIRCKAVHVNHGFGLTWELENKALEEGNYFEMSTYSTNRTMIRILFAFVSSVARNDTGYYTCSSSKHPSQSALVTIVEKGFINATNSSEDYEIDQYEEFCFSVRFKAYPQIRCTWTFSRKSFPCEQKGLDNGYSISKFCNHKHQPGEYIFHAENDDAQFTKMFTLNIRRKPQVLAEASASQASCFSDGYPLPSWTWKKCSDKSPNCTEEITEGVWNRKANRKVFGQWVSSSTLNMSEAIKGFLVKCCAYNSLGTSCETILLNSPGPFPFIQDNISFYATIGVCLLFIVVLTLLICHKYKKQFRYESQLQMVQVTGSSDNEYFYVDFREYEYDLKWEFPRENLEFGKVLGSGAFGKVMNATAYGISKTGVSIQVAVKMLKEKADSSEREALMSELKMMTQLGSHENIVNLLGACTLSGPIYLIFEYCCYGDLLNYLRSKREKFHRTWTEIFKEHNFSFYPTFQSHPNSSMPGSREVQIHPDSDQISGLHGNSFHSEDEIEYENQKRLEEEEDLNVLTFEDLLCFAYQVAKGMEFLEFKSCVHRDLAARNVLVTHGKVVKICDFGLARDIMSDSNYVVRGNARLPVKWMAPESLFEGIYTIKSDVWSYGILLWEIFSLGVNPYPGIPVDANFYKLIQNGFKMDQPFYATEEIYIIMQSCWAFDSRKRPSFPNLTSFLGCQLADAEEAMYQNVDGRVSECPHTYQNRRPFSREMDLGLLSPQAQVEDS
The target in assay [6] is Mitogen-activated protein kinase 8 (Homo sapiens, UniProt P45983). Description: Selectivity interaction (ProQinase) EUB0000171b MAPK8.
Sequence of Mitogen-activated protein kinase 8 (P45983 whole entry): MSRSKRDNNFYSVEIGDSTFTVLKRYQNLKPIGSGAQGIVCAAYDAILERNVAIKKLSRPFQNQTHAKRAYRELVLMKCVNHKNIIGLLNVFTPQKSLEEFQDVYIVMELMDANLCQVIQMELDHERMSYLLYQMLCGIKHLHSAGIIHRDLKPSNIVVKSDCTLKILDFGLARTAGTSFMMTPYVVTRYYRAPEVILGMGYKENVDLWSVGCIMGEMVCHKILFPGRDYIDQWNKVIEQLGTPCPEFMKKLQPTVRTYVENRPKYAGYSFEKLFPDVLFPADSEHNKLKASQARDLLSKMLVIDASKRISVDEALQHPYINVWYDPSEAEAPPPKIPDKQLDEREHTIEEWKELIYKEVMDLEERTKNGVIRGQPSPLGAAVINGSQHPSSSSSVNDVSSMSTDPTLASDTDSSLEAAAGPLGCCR
The target of assay [7] is Dual specificity protein kinase CLK4 (Homo sapiens, UniProt Q9HAZ1). Description: Selectivity interaction (KinomeScan (DiscoverX)) EUB0001550a CLK4. The note with it: at 1 µM.
Sequence of Dual specificity protein kinase CLK4 (Q9HAZ1 whole entry, looked up): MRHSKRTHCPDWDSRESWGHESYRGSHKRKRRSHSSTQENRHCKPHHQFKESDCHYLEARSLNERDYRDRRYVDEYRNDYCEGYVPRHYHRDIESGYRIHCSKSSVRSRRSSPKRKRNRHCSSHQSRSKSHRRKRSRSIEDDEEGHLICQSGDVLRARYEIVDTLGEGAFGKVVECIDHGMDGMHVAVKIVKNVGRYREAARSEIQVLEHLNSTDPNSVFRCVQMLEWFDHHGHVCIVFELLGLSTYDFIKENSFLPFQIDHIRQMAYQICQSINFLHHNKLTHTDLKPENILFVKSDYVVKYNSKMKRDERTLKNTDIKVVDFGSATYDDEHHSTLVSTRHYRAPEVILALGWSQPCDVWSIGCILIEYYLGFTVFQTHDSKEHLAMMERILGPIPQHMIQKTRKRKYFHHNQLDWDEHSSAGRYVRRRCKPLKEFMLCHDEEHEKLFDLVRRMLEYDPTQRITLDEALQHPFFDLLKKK
Assay [8] addresses Myosin light chain kinase, smooth muscle (Homo sapiens, UniProt Q15746). Description: Selectivity interaction (KinomeScan (DiscoverX)) EUB0000618a MYLK. The note with it: at 10 µM.
Assay [9] has as its target RAC-alpha serine/threonine-protein kinase (Homo sapiens, UniProt P31749). Nature of the assay: Selectivity interaction (KinomeScan (DiscoverX)) EUB0000618a AKT1. The settings on record: at 10 µM.

Sequence of Myosin light chain kinase, smooth muscle (Q15746 whole entry): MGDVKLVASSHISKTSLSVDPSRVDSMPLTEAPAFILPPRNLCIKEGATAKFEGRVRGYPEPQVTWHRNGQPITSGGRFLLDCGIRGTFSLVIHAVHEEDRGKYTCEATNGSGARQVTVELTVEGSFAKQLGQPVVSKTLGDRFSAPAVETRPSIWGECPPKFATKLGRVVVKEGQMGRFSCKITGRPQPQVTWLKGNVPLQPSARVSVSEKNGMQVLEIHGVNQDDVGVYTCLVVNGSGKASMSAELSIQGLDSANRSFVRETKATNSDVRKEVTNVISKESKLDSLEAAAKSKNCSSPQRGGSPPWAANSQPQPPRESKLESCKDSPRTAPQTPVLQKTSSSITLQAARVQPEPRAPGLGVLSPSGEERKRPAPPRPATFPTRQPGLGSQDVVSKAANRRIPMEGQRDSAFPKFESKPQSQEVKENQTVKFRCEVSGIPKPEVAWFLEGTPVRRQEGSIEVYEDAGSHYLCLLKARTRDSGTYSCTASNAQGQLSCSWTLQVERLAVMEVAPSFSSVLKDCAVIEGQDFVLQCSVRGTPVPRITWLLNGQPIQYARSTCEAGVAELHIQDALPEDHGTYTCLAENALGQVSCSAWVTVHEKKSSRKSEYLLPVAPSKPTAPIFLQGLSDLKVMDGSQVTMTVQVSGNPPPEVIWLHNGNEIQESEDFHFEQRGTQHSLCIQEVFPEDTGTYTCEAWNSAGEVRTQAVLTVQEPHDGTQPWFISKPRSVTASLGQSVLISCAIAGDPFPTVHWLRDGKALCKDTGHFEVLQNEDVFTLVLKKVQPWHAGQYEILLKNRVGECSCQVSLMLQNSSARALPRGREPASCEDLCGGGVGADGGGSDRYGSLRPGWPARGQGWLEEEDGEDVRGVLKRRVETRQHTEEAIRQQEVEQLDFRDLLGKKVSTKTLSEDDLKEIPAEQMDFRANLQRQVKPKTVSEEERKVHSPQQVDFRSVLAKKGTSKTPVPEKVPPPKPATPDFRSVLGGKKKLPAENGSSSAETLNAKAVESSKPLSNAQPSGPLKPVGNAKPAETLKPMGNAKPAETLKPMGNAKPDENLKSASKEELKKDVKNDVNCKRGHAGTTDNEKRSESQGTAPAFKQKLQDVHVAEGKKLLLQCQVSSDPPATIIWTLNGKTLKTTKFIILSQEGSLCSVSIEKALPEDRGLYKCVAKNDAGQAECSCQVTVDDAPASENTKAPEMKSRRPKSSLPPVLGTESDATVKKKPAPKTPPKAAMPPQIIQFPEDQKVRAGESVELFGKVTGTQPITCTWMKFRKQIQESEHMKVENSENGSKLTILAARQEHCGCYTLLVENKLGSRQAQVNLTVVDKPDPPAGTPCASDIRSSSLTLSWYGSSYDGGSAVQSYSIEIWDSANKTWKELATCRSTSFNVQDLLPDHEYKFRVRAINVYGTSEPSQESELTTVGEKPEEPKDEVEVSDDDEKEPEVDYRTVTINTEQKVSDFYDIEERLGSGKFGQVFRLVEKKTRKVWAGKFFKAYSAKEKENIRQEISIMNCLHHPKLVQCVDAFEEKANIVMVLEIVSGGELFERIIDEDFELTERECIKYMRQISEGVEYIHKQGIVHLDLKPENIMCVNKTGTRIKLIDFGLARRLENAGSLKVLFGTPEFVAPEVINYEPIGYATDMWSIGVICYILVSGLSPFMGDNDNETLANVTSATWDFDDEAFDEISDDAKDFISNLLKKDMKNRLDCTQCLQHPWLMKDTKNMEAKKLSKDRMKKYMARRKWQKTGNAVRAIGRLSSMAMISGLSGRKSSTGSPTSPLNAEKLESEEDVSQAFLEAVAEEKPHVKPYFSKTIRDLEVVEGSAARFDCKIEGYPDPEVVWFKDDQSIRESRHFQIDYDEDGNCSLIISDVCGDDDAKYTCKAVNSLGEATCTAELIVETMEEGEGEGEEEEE
Sequence of RAC-alpha serine/threonine-protein kinase (P31749 whole entry): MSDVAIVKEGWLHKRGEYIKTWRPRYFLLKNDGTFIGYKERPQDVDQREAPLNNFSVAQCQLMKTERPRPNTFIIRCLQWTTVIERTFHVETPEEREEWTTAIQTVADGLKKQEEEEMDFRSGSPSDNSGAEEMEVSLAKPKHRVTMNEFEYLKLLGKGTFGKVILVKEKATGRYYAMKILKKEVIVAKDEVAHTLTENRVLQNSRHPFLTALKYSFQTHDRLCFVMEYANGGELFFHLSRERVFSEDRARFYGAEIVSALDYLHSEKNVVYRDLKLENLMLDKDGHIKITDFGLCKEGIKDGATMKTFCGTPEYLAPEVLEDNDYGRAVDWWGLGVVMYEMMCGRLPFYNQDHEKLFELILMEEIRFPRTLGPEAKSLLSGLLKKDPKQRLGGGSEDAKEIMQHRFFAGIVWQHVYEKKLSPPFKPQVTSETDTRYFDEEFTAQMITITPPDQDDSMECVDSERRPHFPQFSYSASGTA

Turning to `Cn1cc(-n2cnc3c(NCc4nc5cc(Cl)c(Cl)cc5[nH]4)nc(N4CCOCC4)nc32)cn1`, the % of control in [1] was -4.1%. For `CN(C)CCOc1ccc(-c2nc(-c3ccncc3)c(-c3ccc4c(c3)CC/C4=N\O)[nH]2)cc1`, in assay [2], the % of control was 88%.

`CN1Cc2nccc(-c3cn(C)nc3-c3ccc(F)cc3)c2C1=O`: the % of inhibition in [3] turned out to be 10%. Take `CC[C@@H]1[C@H](F)C(=O)N[C@@H]1COc1nccc2cc(C(N)=O)c(OC)cc12` [ZIMLOVISERTIB]: the % of inhibition in assay [4] was determined as 2.2%; in assay [5], 9.68%. For the compound `C=CC(=O)Nc1cccc(C(=O)Nc2ccc(Nc3cc(-c4[nH]c(SC)nc4C)ccn3)cc2)c1`, the % of control in assay [6] (at 1 µM) was 5%; in assay [6] (at 5 µM), 1%.

As for `CN(C)CC#Cc1ccc2[nH]c3c(c2c1)-c1nc(N)ncc1CCC3`, the % of control in [7] was 34%. `O[C@H]1CC[C@H](Nc2ncc3nc(Nc4c(F)cc(F)cc4F)n([C@H]4CCOC4)c3n2)CC1`: the % of control was 65% in [8] and 72% in [9].
